Results as given in patent US11786595B2, “Methods for radiotherapy to trigger light activation drugs” (priority 2015, dated 2023).

What was measured:
[1] = test system: Venezuelan equine encephalitis virus (VEEV); conditions: cited from earlier work
[2] = test system: Zaire Ebola virus (ZEBOV); conditions: cited from earlier work
[3] = test system: Acinetobacter baumannii; conditions: loaded into MCM-41 host, visible light 100 milliWatts per square centimeter; cited from earlier work
[4] = test system: B16 melanoma cells; assay: CellTiter-Glo luminescence (cell viability) versus TMP concentration, with or without Cherenkov light; assay type: cell-based; conditions: 6 MV x-rays at 2 Gy, 48-hour incubation, with Cherenkov light vs without
[5] = test system: B16 melanoma cells; assay: Flow cytometry of MHC class I expression after X-ray/Cherenkov exposure; assay type: cell-based; conditions: 72 hour incubation

Compound: [N-]=[N+]=Nc1cccc2c(I)cccc12 [INA, 1,5-iodonaphthyl-azide]
- virus inactivation [1]: efficiently inactivate
- virus infectivity after INA treatment [2]: completely noninfectious

Compound: [Mn(PaPy3)(NO)](ClO4) [{Mn—NO}]
- clearing of bacteria by released nitric oxide [3]: effectively cleared the bacteria

Compound: Cc1cc2cc3c(C)cc(=O)oc3c(C)c2o1 [TMP, 4,5′,8-trimethyl psoralen]
- cell viability / cell kill [4]: cell viability is reduced
- MHC 1 expression ([5]; 15 MV X-ray exposure with Cherenkov light): 13.7%
- MHC 1 expression ([5]; control with no Cherenkov (x-rays only)): 8.01%
- MHC 1 expression ([5]; control with no x-rays): 5.46%
